In series [1] the target is CH24H (Macaca mulatta, UniProt I2CYF7). Put plainly: PET measurements and image analysis after intravenous bolus of radiotracer. It is filed as in vivo, rhesus macaque (macaca mulatta). Conditions: for BPND in the putamen: Logan graphical analysis, cerebellum as reference region, t* 40 min. The protocol:
Animals were fasted for 18-24 h before the study. At 2 h prior to injection of the radiopharmaceutical, the animals were anesthetized with intramuscular ketamine (10 mg/kg) and glycopyrrolate (0.01 mg/kg), transferred to the PET camera, and immediately intubated with an endrotracheal tube for continued anesthesia with 2.75% isoflurane administered through a rebreathing circuit. Body temperature was kept at 37° C. using a heated water blanket. Vital signs, including heart rate, blood pressure, respiration rate, oxygen saturation and body temperature, were monitored every 3 to 20 min during the study.
The dynamic series were subsequently reconstructed using filtered back projection with corrections for random, scatter, and attenuation provided by the camera manufacturer.
Four samples of 5 mL were drawn at 3, 10, 30 and 60 min post injection to evaluate the stability in blood as well as the metabolite analysis method and HPLC conditions.
Reconstructed PET image data volumes were transferred to the image processing PMOD software package (PMOD Technologies, Zurich, Switzerland) where the images were realigned with the monkey's individual MRI to apply a volume of interest (VOI) template comprising the following regions: whole brain, caudate nucleus, putamen, globus pallidus, frontal cortex, temporal cortex, occipital cortex, parietal cortex, anterior cingulate cortex, posterior cingulated cortex, hippocampus, thalamus, and cerebellum. Average activity concentration (kBq/cc) within each VOI was determined and time activity curves (TAC) were generated for each study, depicting the regional brain activity concentration over time and reflecting total uptake (specific plus non displaceable). Time activity curves were also expressed in SUV (Standard Uptake Value) units (g/mL) by normalizing by the weight of the animal and the injected dose. Logan graphical analysis with reference region input function was applied to the regional time activity curves with t* fixed at 40 min to obtain an estimate of BPND (Binding Potential relative to the Non-Displaceable compartment), where the cerebellum was used as the reference region.

The target of series [2] is human CH24H (Homo sapiens (Human), UniProt Q9Y6A2). Nature of the series: Measurement of CH24H inhibitory activity (24-HC produced from [14C]cholesterol by human CH24H lysate). Conditions: [14C]cholesterol 15 μM, 37° C. for 5 hr. It is filed as biochemical. As to the method: The expression of human CH24H was performed using FreeStyle 293 Expression System (Invitrogen). […] After transfection, the cells were cultured at 37° C., 8% CO2 with shaking at 125 rpm for 2 days. The cells were collected by centrifugation, and suspended in a suspension buffer (100 mM potassium phosphate (pH 7.4), 0.1 mM EDTA, 1 mM DTT, 20% Glycerol). The suspended product was disrupted by a polytron homogenizer (manufactured by Kinematica), and centrifuged at 9000×g for 10 min, and the supernatant was collected. The collected supernatant was cryopreserved (−80° C.) as a human CH24H lysate standard product.
human CH24H, sequence (Q9Y6A2 whole entry): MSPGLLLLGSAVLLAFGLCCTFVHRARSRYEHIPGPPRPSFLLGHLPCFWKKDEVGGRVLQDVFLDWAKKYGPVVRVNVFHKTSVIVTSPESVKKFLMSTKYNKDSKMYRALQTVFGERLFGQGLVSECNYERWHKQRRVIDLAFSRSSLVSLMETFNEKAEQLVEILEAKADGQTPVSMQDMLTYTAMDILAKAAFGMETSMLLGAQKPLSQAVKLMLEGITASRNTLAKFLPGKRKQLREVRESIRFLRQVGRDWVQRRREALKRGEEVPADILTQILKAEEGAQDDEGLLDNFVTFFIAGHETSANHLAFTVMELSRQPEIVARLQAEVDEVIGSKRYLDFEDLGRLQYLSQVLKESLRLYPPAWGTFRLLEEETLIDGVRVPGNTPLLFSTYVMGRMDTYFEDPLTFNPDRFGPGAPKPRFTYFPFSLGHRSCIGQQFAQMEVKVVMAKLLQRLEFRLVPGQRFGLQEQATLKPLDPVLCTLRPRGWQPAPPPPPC
For the measurement of CH24H inhibitory activity, using the human CH24H lysate prepared in Experimental Example 2, the amount of 24-HC produced from cholesterol by catalytic activity of CH24H was measured in the presence of a test compound, and compared with that measured in the absence of the test compound. That is, a test compound solution at various concentrations was mixed with a reaction buffer (50 mM potassium phosphate containing 0.1% BSA and Complete, EDTA-free, pH 7.4) and human CH24H lysate. Then, [^14C] cholesterol (53 mCi/mmol specific activity, 15 μM) was added, and CH24H reaction was performed at 37° C. for 5 hr. After completion of the reaction, a quenching solution consisting of chloroform/methanol/distilled water (2:2:1 v/v) was added, and the resulting 24-HC was extracted by shaking. The extract was applied to silica gel thin layer chromatography (ethyl acetate:toluene=4:6), and the obtained ^14C-24HC fraction was measured with BAS2500 (Fujifilm Corporation).
The inhibitory rate (%) and IC50 values (μM) were calculated from the ratio of radioactivity in the presence of a test compound relative to the radioactivity in the absence of the test compound.

For series [3], the system named is other CNS related human receptors and enzymes. Put plainly: Selectivity assay over other CNS related human receptors and enzymes (Eurofins Panlabs, Tables 3-1 and 3-2). It is filed as binding. The settings on record: at 10 μM. As to the method:
The CH24H IC50 is a measure of the ability of the test compound to inhibit the action of the CH24H enzyme. To determine the selectivity of the test compounds for CH24H, inhibitory activities of the compound were determined for other CNS (central nerve system) related receptors and enzymes such as Adenosine A2B, Adrenergic β1, Adrenergic β2, Adrenergic β3, Angiotensin AT2, Bradykinin B1, Cannabinoid CB1, Carbonic Anhydrase II, Acetyl Cholinesterase, Cyclooxygenase (COX-1), Cyclooxygenase (COX-2), Dopamine D1, Dopamine D2L, Dopamine D3, Dopamine D4.2, GABA B1A, GABA B1B, Histamine H1, Histamine H2, Imidazoline I2 (Central), MAO A, MAO B, Muscarinic M1, Muscarinic M2, Muscarinic M3, Opiate κ (OP2, KOP), Opiate μ (OP3; MOP), Metalloproteinase, Phosphodiesterase 4 (PDE4), Phosphodiesterase 5 (PDE5), 5-HT2B, NK2, NK3, Dopamine transporter, Norepinephrine transporter, Serotonin transporter (SERT), Vasopressin V1A. […] Such a result is indicative of the selectivity of the compounds in use as radiotracers for quantitative imaging of CH24H. In general, one of ordinary skill in the art would appreciate that a substance is considered to be effectively used for quantitative imaging of CH24H if it has an activity in inhibiting other CNS related receptors and enzymes with less than 50% at 10 μM. […]

CH24H, sequence (I2CYF7 1-500): as the sequence (Q9Y6A2 whole entry) above, with V87I, G417S, A494T counted along it

As to `O=C(C1CCN(c2cncnc2-c2ccc(F)cc2)CC1)N1CC([18F])C1` [Example 2, (3-[^18F]fluoroazetidin-1-yl) (1-(4-(4-fluorophenyl)pyrimidin-5-yl)piperidin-4-yl)methanone], in series [1], the “BPND in the putamen” value was 2.6. In series [1] (rhesus monkey, in vivo), the brain kinetics result is “favorable kinetics with a significant washout following the maximum uptake”; the “regional brain uptake (distribution)” value was “highest uptake in the putamen and caudate”. Moreover, in series [1] (rhesus monkey, in vivo, iv), the “time of maximum SUV in the putamen” value was ~30 min post injection and the “whole-brain maximum % ID” value is recorded as 2.3%.
Broadly, the IC50 is the point on the concentration scale where inhibition reaches its midpoint. Low readings indicate greater potency, high ones weaker potency. Take `CN(C(=O)C1CCN(c2cncnc2-c2ccc(F)cc2)CC1)C1CC1` [Reference Example 1, N-cyclopropyl-1-(4-(4-fluorophenyl)pyrimidin-5-yl)-N-methylpiperidine-4-carboxamide]: in series [2], inhibition was half-maximal at 5.4 nM (IC50).
`O=C(C1CCN(c2cncnc2-c2ccc(F)cc2)CC1)N1CC(F)C1` [Reference Example 2, (3-fluoroazetidin-1-yl) (1-(4-(4-fluorophenyl)pyrimidin-5-yl)piperidin-4-yl)methanone] yielded an IC50 in series [2] of 8.8 nM. Further, the “inhibition in the assays listed in Tables 3-1 and 3-2” value in series [3] is given as “less than 50%”.
Turning to `CN(C(=O)C1CCN(c2cnccc2-n2cc(Cl)cn2)CC1)C1CCOCC1` [Reference Example 3, 1-(4-(4-chloro-1H-pyrazol-1-yl)pyridin-3-yl)-N-methyl-N-(tetrahydro-2H-pyran-4-yl)piperidine-4-carboxamide], half-maximal inhibition in series [2] (IC50) was put at 7.4 nM.
`Cc1cnn(-c2ccncc2N2CCC(C(=O)N3CC(F)C3)CC2)c1` [Reference Example 4, (3-fluoroazetidin-1-yl) (1-(4-(4-methyl-1H-pyrazol-1-yl)pyridin-3-yl)piperidin-4-yl)methanone]: inhibition in series [2] was half-maximal at 7.1 nM (IC50).
The same measure, in the same setting: the same measure for `O=C(C1CCN(c2cnccc2-n2cc(Cl)cn2)CC1)N1CC(F)C1` [Reference Example 5, (1-(4-(4-chloro-1H-pyrazol-1-yl)pyridin-3-yl)piperidin-4-yl) (3-fluoroazetidin-1-yl)methanone]: 19 nM; for `O=C(C1CCN(c2cncnc2-c2ccc(F)cc2)CC1)N1CC[C@H](F)C1` [Reference Example 10, (1-(4-(4-fluorophenyl)pyrimidin-5-yl)piperidin-4-yl) ((3S)-3-fluoropyrrolidin-1-yl)methanone]: 20 nM; for `O=C(C1CCN(c2cncnc2-c2ccc(F)cc2)CC1)N1CC[C@@H](F)C1` [Reference Example 11, (1-(4-(4-fluorophenyl)pyrimidin-5-yl)piperidin-4-yl) ((3R)-3-fluoropyrrolidin-1-yl)methanone]: 16 nM.
The same measure, in the same setting: the same measure for `CN(C(=O)C1CCN(c2cnccc2-n2cc(Cl)cn2)CC1)[C@H]1CCOC1` [Reference Example 13, 1-(4-(4-chloro-1H-pyrazol-1-yl)pyridin-3-yl)-N-methyl-N-((3S)-tetrahydrofuran-3-yl)piperidine-4-carboxamide]: 20 nM; for `CN(C(=O)C1CCN(c2cnccc2-n2cc(Cl)cn2)CC1)[C@@H]1CCOC1` [Reference Example 14, 1-(4-(4-chloro-1H-pyrazol-1-yl)pyridin-3-yl)-N-methyl-N-((3R)-tetrahydrofuran-3-yl)piperidine-4-carboxamide]: 17 nM; for `O=C(C1CCN(c2cnccc2-n2cc(Br)cn2)CC1)N1CC(F)C1` [Reference Example 20, (1-(4-(4-bromo-1H-pyrazol-1-yl)pyridin-3-yl)piperidin-4-yl) (3-fluoroazetidin-1-yl)methanone]: 6.9 nM.
On the same count and under the same terms, in the case of `Cc1cnc(-c2ccncc2N2CCC(C(=O)N3CC(F)C3)CC2)s1` [Reference Example 21, (3-fluoroazetidin-1-yl) (1-(4-(5-methyl-1,3-thiazol-2-yl)pyridin-3-yl)piperidin-4-yl)methanone] it was 4.9 nM.
`Cc1cnn(-c2ccncc2N2CCN(C(=O)N(CCF)Cc3ccc(F)cc3)CC2)c1` [Reference Example 23, N-(4-fluorobenzyl)-N-(2-fluoroethyl)-4-(4-(4-methyl-1H-pyrazol-1-yl)pyridin-3-yl)piperazine-1-carboxamide]: the IC50 in series [2] stood at 17 nM.
On the same count and under the same terms, in the case of `O=C(C1CCN(c2cnccc2-n2cc(C3CC3)cn2)CC1)N1CC(F)C1` [Reference Example 26, (1-(4-(4-cyclopropyl-1H-pyrazol-1-yl)pyridin-3-yl)piperidin-4-yl) (3-fluoroazetidin-1-yl)methanone] it was 10 nM.
For the compound “(1-(4-(4-chloro-1H-pyrazol-1-yl)pyridin-3-yl)piperidin-4-yl) (3-[^18F]fluoroazetidin-1-yl)methanone [Example 1]”, the “BPND in the putamen” value in series [1] was 2.3. In addition, the brain kinetics result in series [1] (female rhesus macaque, PET time activity curves) is listed as “favorable kinetics with a significant washout following the maximum uptake”. The “regional brain uptake (distribution)” value in series [1] (female rhesus macaque, PET time activity curves (FIG. 1, FIG. 2)) is “highest uptake in the putamen and caudate”. The “whole-brain maximum % ID” value in series [1] (female rhesus macaque, i.v. bolus, PET) came out at 1.6%.

Source of the values: patent publication US9963443B2, “Radiolabeled compounds” (TAKEDA PHARMACEUTICAL COMPANY LIMITED, priority 2014, dated 2018).
